Measured values from ChEMBL document CHEMBL5257034, “Hybrid molecules: The privileged scaffolds for various pharmaceuticals” (Eur J Med Chem, 2016).
In brackets after ≈: the same amount, converted by molar mass.

What was measured:
Plasmodium falciparum [1] = test: Antimalarial activity against chloroquine-sensitive Plasmodium falciparum 3D7; assay type: functional
Plasmodium falciparum [2] = test: Antiplasmodial activity against Plasmodium falciparum W2 infected in red blood cells (unknown origin) incubated for 72 hrs by LDH assay; assay type: functional, organism-based, Red blood cell; conditions: W2, Erythrocyte
[3] = test system: Mycobacterium tuberculosis; test: Potency index, ratio of pyrazinamide MIC to test compound MIC for antibacterial activity against Mycobacterium tuberculosis H37Rv; assay type: functional
[4] = test system: Mycobacterium tuberculosis; test: Antibacterial activity against Mycobacterium tuberculosis H37Rv; assay type: functional
Mus musculus = test: Antiinflammatory activity against ear oedema mouse model assessed as inhibition of xylene induced edema; assay type: functional
Aspergillus niger = test: Antifungal activity against Aspergillus niger assessed as zone of inhibition; assay type: functional
Candida albicans [5] = test: Antifungal activity against Candida albicans assessed as zone of inhibition; assay type: functional
MCF7 = test: Cytotoxicity against human MCF7 cells measured 24 hrs by MTT assay; assay type: functional, cell-based; conditions: MCF7, 24 h
Pichia norvegensis = test: Antifungal activity against Candida mycoderma incubated for 24 hrs; assay type: functional
Candida albicans [6] = test: Antifungal activity against Candida albicans; assay type: functional, organism-based
[7] = test system: Mycobacterium tuberculosis; test: Antibacterial activity against Mycobacterium tuberculosis; assay type: functional
[8] = test system: Mycobacterium tuberculosis; test: Antibacterial activity against Mycobacterium tuberculosis H37Rv assessed as reduction in relative light unit at 5.2 microg/ml incubated for 72 hrs by luciferase reporter phage assay relative to control; assay type: functional; set-up: scale not given: the % may be the effect or the level left; conditions: dose 5.2 µg/ml
[9] = test system: Mycobacterium tuberculosis; test: Antibacterial activity against Mycobacterium tuberculosis H37Rv by alamar blue method; assay type: functional
Candida albicans [10] = test: Antifungal activity against Candida albicans ATCC 76615 incubated for 24 hrs by microbroth dilution method; assay type: functional

Structure (SMILES): CC1=C(c2nnc(/N=C3\C(=O)Nc4ccc(Cl)cc43)o2)C(c2ccccc2)NC(=S)N1 (configuration not stated)
- MIC (Plasmodium falciparum [1]): 0.035 µg/mL (≈ 0.0776 µM)

Structure (SMILES): COc1cc(Nc2nc(OCc3cn(CCNc4cccc5cc(Cl)ccc45)nn3)nc(N(C)C)n2)cc(OC)c1
- IC50 (Plasmodium falciparum [2]): 1.15 µM

Structure (SMILES): O=C1Nc2ccccc2C12C(c1cccc([N+](=O)[O-])c1)C([N+](=O)[O-])C1CSCN12 (configuration not stated)
- Ratio [3]: 6.7
- MIC [4]: 7.6 µM

Structure (SMILES): O=C1Nc2cc3c(-c4ccccc4)c(-c4ccccc4)oc(=O)c3cc2C(c2ccccc2Cl)N1 (configuration not stated)
- MIC [4]: 62.5 µg/mL

Structure (SMILES): CSc1nc(-c2ccc(S(N)(=O)=O)cc2)n(-c2ccc(F)cc2)n1
- inhibition (INH) (Mus musculus): 75%

Structure (SMILES): COC1=CC(=O)C[C@@H](C)[C@]12Oc1c(Cl)c(OC)cc(OC)c1C2=O [GRISEOFULVIN]
- inhibition zone (IZ) (Aspergillus niger): 36 mm
- inhibition zone (IZ) (Candida albicans [5]): 39 mm

Structure (SMILES): COc1cc(/C=C/c2ccc(O)cc2)cc(OC)c1 [PTEROSTILBENE]
- IC50 (MCF7): 65 µM

Structure (SMILES): O=C(NN1C(=O)CSC1c1ccc([N+](=O)[O-])cc1)c1ccc(NCN2c3ccccc3Sc3ccccc32)cc1 (configuration not stated)
- MIC [4]: 3.12 µg/mL

Structure (SMILES): NNC(=O)c1ccncc1 [ISONIAZID]
- MIC [4]: 0.2 µg/mL

Structure (SMILES): NC(=O)c1cnccn1 [PYRAZINAMIDE]
- MIC [4]: 50.1 µM

Structure (SMILES): O=C1c2cccc3c(Br)ccc(c23)C(=O)N1CCCn1c[n+](Cc2ccc(F)cc2F)cn1.[Br-]
- MIC (Pichia norvegensis): 4 µg/mL

Structure (SMILES): C[C@@H]([C@H](N)C(=O)N[C@H](C(=O)O)[C@H]1O[C@@H](n2ccc(=O)[nH]c2=O)[C@H](O)[C@@H]1O)[C@H](O)c1ccc(O)cn1 [NIKKOMYCIN]
- IC50 (Candida albicans [6]): 0.393 µg/mL (≈ 0.793 µM)

Structure (SMILES): O=C1NN=C(/N=C/c2cccc(Cl)c2)/C1=N\Nc1nc2c([N+](=O)[O-])cccc2s1
- MIC [7]: 1.66 µg/mL (≈ 3.88 µM)

Structure (SMILES): NC(Cc1cc2ccccc2c2ccccc12)C(=O)N[C@H](C(=O)O)[C@H]1O[C@@H](n2ccc(=O)[nH]c2=O)[C@H](O)[C@@H]1O (some centres not stated)
- IC50 (Candida albicans [6]): 0.31 µg/mL (≈ 0.58 µM)

Structure (SMILES): NC(=O)OC[C@H](O)[C@@H](O)[C@H](N)C(=O)N[C@H](C(=O)O)[C@H]1O[C@@H](n2cc(C(=O)O)c(=O)[nH]c2=O)[C@H](O)[C@@H]1O
- MIC (Candida albicans [6]): 320 µg/mL (≈ 614 µM)

Structure (SMILES): COc1ccc(-c2nc(-c3ccccc3)c(-c3ccccc3)n2C(NN2CCNCC2)c2ccccc2)c(OC)c1OC (configuration not stated)
- inhibition zone (IZ) (Aspergillus niger): 27 mm
- inhibition zone (IZ) (Candida albicans [5]): 28 mm

Structure (SMILES): CC(=O)OC[C@H]1O[C@@H](OCc2cn(Cc3ccc4ccccc4n3)nn2)[C@H](OC(C)=O)[C@@H](OC(C)=O)[C@@H]1OC(C)=O
- Activity [8]: 76.41%

Structure (SMILES): O=C1Nc2cc3c(-c4ccccc4)c(-c4ccccc4)oc(=O)c3cc2C(c2ccc(Cl)cc2)N1 (configuration not stated)
- MIC [4]: 50 µg/mL

Structure (SMILES): CSc1nc(-c2ccc(S(N)(=O)=O)cc2)n(-c2ccc(Cl)cc2)n1
- inhibition (INH) (Mus musculus): 80%

Structure (SMILES): c1c[nH]c(Cc2nc3ccccc3c3cc[nH]c23)c1
- MIC [9]: 3.3 µg/mL (≈ 13.3 µM)

Structure (SMILES): CCCCCCCCCCCCCCCC[n+]1cnn(Cc2ccc(Cl)cc2Cl)c1.[Br-]
- MIC (Candida albicans [10]): 30 µg/mL

Structure (SMILES): CC[C@@H](CO)NCCN[C@@H](CC)CO [ETHAMBUTOL]
- MIC [4]: 7.6 µM

Structure (SMILES): COc1ccc(-c2nc(-c3ccccc3)c(-c3ccccc3)n2C(NN(c2ccccc2)c2cccc3ccccc23)c2ccccc2)c(OC)c1OC (configuration not stated)
- inhibition zone (IZ) (Aspergillus niger): 24 mm
- inhibition zone (IZ) (Candida albicans [5]): 20 mm
